The source of these data is US7186825B2, “Conformationally restricted polyamine analogs as disease therapies” (Cellgate, Inc., priority 1999, dated 2007).

What all share (type): cell-based
Experiment [1] relates to human breast cancer cells MCF7. In words: MTT assay, survival/growth of cultured human breast cancer cells MCF7. Conditions: for EC50: figure legends, survival of cultured MCF7 cells, MTT, six days after drug treatment, read-out: ED50 (the source's name); for IC50: read-out: concentration needed for 50% growth inhibition (ID50), Table 3, MCF7. As to the method: (§1) As shown in Table 3 and FIGS. 1–32, several novel conformationally restricted polyamine analogs were tested for anti-proliferative properties against cancer cells.
(§2) Human breast cancer cell line MCF7 was grown in Richter's Improved Modified Eagle's Medium supplemented with 10% fetal bovine serum (FBS) and 2.2 g/L sodium bicarbonate. Human brain tumor cell line U251 MG-NCI was grown in Dulbecco's Modified Eagle's Medium supplemented with 10% FBS. Human lung cancer cell line A549 was grown in Ham's F-12K medium (Cellgro, Mediatech, Inc., VA), supplemented with 10% FBS and 2 mM L-glutamine. Human colon cancer cell line HT29 was cultured in McCoy's 5A medium (Gibco, BRL, Gaithersburg, Md.) supplemented with 10% FBS. Human prostate cancer cell lines PC-3, LNCAP and DuPro were grown in RPMI 1640 Medium (Cellgro, Mediatech, Inc., VA) supplemented with 10% FBS. Another human prostate cancer cell line DU145 was grown in Dulbecco's Modified Eagle's Medium (Gibco, BRL, Gaithersburg, Md.) supplemented with 5% FBS. The A549, MCF7, PC3, LNCAP and DuPro cell lines were cultured in 100 units/mL penicillin and 100 μg/mL streptomycin. HT29 and U251MG cell lines were grown in 50 μg/mL gentamycin (Gibco, BRL, Gaithersburg, Md.). DU145 cell line was maintained in 1% antibitic-antimycotic solution (Sigma, St. Louis, Mo.). The cell cultures were maintained at 37° C. in 5% CO2/95% humidified air. DuPro cells were obtained from M. Eileen Dolan, University of Chicago. All other cells are available from the American Type Culture Collection, Rockville, Md.
(§3) A conventional MTT assay was used to evaluate percent cell survival. Exponentially growing monolayer cells were plated in 96-well plates at a density of 500 cells per well and allowed to grow for 24 hours. Serial dilutions of the drugs were added to the wells. Six days after drug treatment, 25 μl of MTT solution (5 mg/ml) was added to each well and incubated for 4 hours at 37° C. Then 100 μl of lysis buffer (20% sodium dodecyl sulfate, 50% DMF, and 0.8% acetic acid, pH 4.7) was added to each well and incubated for an additional 22 hours. A microplate reader (“EMAX”-brand, Molecular Devices, Sunnyvale, Calif.) set at 570 nm was used to determine the optical density of the cultures. Results are expressed as a ratio of the optical density in drug-treated wells to the optical density in wells treated with vehicle only.
For orientation: Tetrazolium dyes change colour on reduction, which living cells bring about.

Experiment [2] concerns human prostate cancer cells DU145. The experiment can be described thus: MTT assay, survival/growth of cultured human prostate cancer cells DU145. Conditions: for EC50: figure legends, survival of cultured DU145 cells, MTT, six days after drug treatment, read-out: ED50 (the source's name); for IC50: read-out: concentration needed for 50% growth inhibition (ID50), Table 3, DU-145. As to the method:
as §2, §3
(§4) Using the protocols of Example 2, the porphyrin-polyamine conjugates were tested for activity in vitro in various cancer cell lines.

Experiment [3] has as its system human colon cancer cells HT29. In words: MTT assay, survival/growth of cultured human colon cancer cells HT29. Conditions: for EC50: figure legends, survival of cultured HT29 cells, MTT, six days after drug treatment, read-out: ED50 (the source's name); for IC50: read-out: concentration needed for 50% growth inhibition (ID50), Table 3, HT-29. As to the method:
as §1, §2, §3

For experiment [4], the system named is human lung cancer cells A549. In words: MTT assay, survival/growth of cultured human lung cancer cells A549. As to conditions: for EC50: figure legends, survival of cultured A549 cells, MTT, six days after drug treatment, read-out: ED50 (the source's name); for IC50: read-out: concentration needed for 50% growth inhibition (ID50); for IC50 / concentration needed for 50% growth inhibition (ID50): Table 3, A549. As to the method: as §1, §2, §3

The test system of experiment [5] is human prostate cancer cells DUPRO. In words: MTT assay, survival/growth of cultured human prostate cancer cells DUPRO. As to conditions: for EC50: figure legends, survival of cultured DUPRO cells, MTT, six days after drug treatment, read-out: ED50 (the source's name); for IC50: read-out: concentration needed for 50% growth inhibition (ID50), Table 3, DUPRO. As to the method: as §2, §3, §4

Experiment [6] concerns human brain tumor cells U251 MG NCI. The experiment can be described thus: MTT assay, survival/growth of cultured human brain tumor cells U251 MG NCI. As to conditions: for EC50: figure legends, survival of cultured U251 MG NCI cells, MTT, six days after drug treatment, read-out: ED50 (the source's name); for IC50: Table 3, U251MG. As to the method:
as §2, §3

Experiment [7] relates to human prostate cancer cells PC3. In words: MTT assay, survival/growth of cultured human prostate cancer cells PC3. As to conditions: for EC50: figure legends, survival of cultured PC3 cells, MTT, six days after drug treatment, read-out: ED50 (the source's name); for IC50: read-out: concentration needed for 50% growth inhibition (ID50), Table 3, PC-3. As to the method:
as §2, §3, §4

For experiment [8], the system named is human prostate cancer cells LNCAP. The experiment can be described thus: MTT assay, survival/growth of cultured human prostate cancer cells LNCAP. As to conditions: figure legends, survival of cultured LNCAP cells, six days after drug treatment, read-out: ED50 (the source's name). As to the method: as §2, §3, §4
[9] abbreviates: Homo sapiens, U-251, read-out: concentration needed for 50% growth inhibition (ID50).
Where [10] appears, read: read-out: concentration needed for 50% growth inhibition (ID50).

Like-named read-outs stand apart in the source and are kept apart here.

For the molecule `CCNCCCNCCCNCCCNCC` [BE-333, N1,N11-diethylnorspermine, reference compound], the EC50 in experiment [1] was 3700 nM; in experiment [2], 120 nM; in experiment [3], 300 nM; in experiment [4], 300 nM; in experiment [5], 900 nM; in experiment [6], 230 nM. The EC50 in experiment [7] was found to be 340 nM.
As for `CCNCCCCNCCCCNCCCCNCC` [BE-444, N1,N14-bis(ethyl) homospermine, reference compound], the EC50 amounted to 100 nM in experiment [8]; 30 nM in experiment [2]; 930 nM in experiment [3]; 150 nM in experiment [4]; 700 nM in experiment [7].
Turning to `CCNCCCNCC#CCNCCCNCC` [SL-11091], the EC50 in experiment [1] (Homo sapiens, 144 h) is more than 31200 nM; in experiment [2] (Homo sapiens, DU-145, 144 h), 4330 nM; in experiment [3] (Homo sapiens, HT-29, 144 h), more than 31200 nM; in experiment [4] (Homo sapiens, 144 h), more than 31200 nM; in experiment [6] (Homo sapiens, U-251, 144 h), more than 31200 nM; in experiment [7] (Homo sapiens, PC-3, 144 h) it was more than 31200 nM. Moreover, the IC50 in experiment [1] (Homo sapiens) was more than 31200 nM; in experiment [2] (Homo sapiens) it was 1330 nM; in experiment [3] (Homo sapiens) it was more than 31200 nM; in experiment [4] (Homo sapiens), more than 31200 nM; in experiment [6] (setting [9]) it was more than 31200 nM; in experiment [7] (Homo sapiens), more than 31200 nM.
In the case of `CNCCCNCC#CCNCCCNC` [SL-11092], the IC50 is more than 31200 nM in experiment [1] (Homo sapiens); 1700 nM in experiment [2] (Homo sapiens); more than 31200 nM in experiment [3] (Homo sapiens); more than 31200 nM in experiment [4] (Homo sapiens); more than 31200 nM in experiment [6] (setting [9]); more than 31200 nM in experiment [7] (Homo sapiens).
Regarding `CCNCCCNCc1ccccc1CNCCCNCC` [SL-11094], the IC50 in experiment [1] is more than 31200 nM; in experiment [2], 12600 nM; in experiment [3], 28800 nM; in experiment [6] (setting [10]) it was more than 31200 nM; in experiment [7], more than 31200 nM. The EC50 in experiment [2] came out at 15400 nM. Besides, the “concentration needed for 50% growth inhibition (ID50)” value in experiment [4] was more than 31250 nM.
In the case of `CCNCCCCNC/C=C/CNCCCCNCC` [SL-11101], the EC50 in experiment [1] (Homo sapiens, 144 h) is more than 31200 nM; in experiment [2] (Homo sapiens, DU-145, 144 h), 220 nM; in experiment [4] (Homo sapiens, 144 h) it was 2200 nM; in experiment [5] (Homo sapiens, 144 h), 850 nM; in experiment [6] (Homo sapiens, U-251, 144 h), 1700 nM; in experiment [7] (Homo sapiens, PC-3, 144 h) it was 7700 nM. Moreover, the IC50 in experiment [1] (Homo sapiens) was more than 31200 nM; in experiment [2] (Homo sapiens) it was 218 nM; in experiment [3] (Homo sapiens), 5200 nM; in experiment [4] (Homo sapiens), 150 nM; in experiment [5] (Homo sapiens) it was 850 nM; in experiment [6] (setting [9]) it was 1700 nM. Also, the IC50 in experiment [7] (Homo sapiens) was found to be 7700 nM.
In the case of `CCNCCCCNC/C=C\CNCCCCNCC` [SL-11102], the IC50 was more than 31200 nM in experiment [1]; 27 nM in experiment [2]; 730 nM in experiment [3]; 150 nM in experiment [5]; 150 nM in experiment [6] (setting [10]); more than 31200 nM in experiment [7]. In addition, the EC50 in experiment [2] was 30 nM; in experiment [4], 150 nM; in experiment [5], 150 nM; in experiment [6], 150 nM; in experiment [7], more than 31200 nM. The “concentration needed for 50% growth inhibition (ID50)” value in experiment [4] worked out at 12400 nM.
As to `CCNCCCCNCC#CCNCCCCNCC` [SL-11103], the EC50 in experiment [1] (Homo sapiens, 144 h) is more than 31200 nM; in experiment [2] (Homo sapiens, DU-145, 144 h), 2800 nM; in experiment [4] (Homo sapiens, 144 h), 12400 nM; in experiment [6] (Homo sapiens, U-251, 144 h) it was 9500 nM; in experiment [7] (Homo sapiens, PC-3, 144 h), more than 31200 nM. For the same molecule, the IC50 was more than 31200 nM in experiment [1] (Homo sapiens); 2800 nM in experiment [2] (Homo sapiens); 29400 nM in experiment [3] (Homo sapiens); more than 31200 nM in experiment [4] (Homo sapiens); 9500 nM in experiment [6] (setting [9]); more than 31200 nM in experiment [7] (Homo sapiens).
For `CCNCCCCNCc1ccccc1CNCCCCNCC` [SL-11104], the IC50 was more than 31200 nM in experiment [1]; 9400 nM in experiment [2]; 25800 nM in experiment [3]; 14700 nM in experiment [6] (setting [10]); more than 31200 nM in experiment [7]. Also, the EC50 was determined as 9400 nM in experiment [2] and 14700 nM in experiment [6]. Besides, in experiment [4], the “concentration needed for 50% growth inhibition (ID50)” value stood at 430 nM.
Consider `CCNC/C=C\CNCCCCNC/C=C\CNCC` [SL-11114], for which the EC50 in experiment [8] (Homo sapiens, 144 h) is 3000 nM; in experiment [2] (Homo sapiens, DU-145, 144 h) it was 130 nM; in experiment [4] (Homo sapiens, 144 h), more than 31200 nM; in experiment [5] (Homo sapiens, 144 h), 640 nM; in experiment [7] (Homo sapiens, PC-3, 144 h), 700 nM. Besides, the IC50 in experiment [2] (Homo sapiens) is 135 nM; in experiment [3] (Homo sapiens) it was 3600 nM; in experiment [4] (Homo sapiens) it was more than 31200 nM; in experiment [5] (Homo sapiens), 640 nM; in experiment [7] (Homo sapiens), 700 nM.
Consider `CCNC/C=C\CNCCCCNCCCCNCC` [SL-11118], for which the EC50 is 210 nM in experiment [8] (Homo sapiens, 144 h); 50 nM in experiment [2] (Homo sapiens, DU-145, 144 h); 214 nM in experiment [4] (Homo sapiens, 144 h); 250 nM in experiment [5] (Homo sapiens, 144 h); 1650 nM in experiment [7] (Homo sapiens, PC-3, 144 h). The IC50 in experiment [2] (Homo sapiens) came to 50 nM; in experiment [3] (Homo sapiens), 980 nM; in experiment [4] (Homo sapiens), 210 nM; in experiment [5] (Homo sapiens), 250 nM; in experiment [7] (Homo sapiens), 1650 nM.
In the case of `CCNC/C=C\CNCCCCNCCCCNC/C=C\CNCC` [SL-11128], the EC50 in experiment [8] (Homo sapiens, 144 h) is 300 nM; in experiment [2] (Homo sapiens, DU-145, 144 h) it was 140 nM; in experiment [5] (Homo sapiens, 144 h), 1280 nM; in experiment [7] (Homo sapiens, PC-3, 144 h), 500 nM. The IC50 is 140 nM in experiment [2] (Homo sapiens), 1350 nM in experiment [3] (Homo sapiens), 1250 nM in experiment [5] (Homo sapiens) and 500 nM in experiment [7] (Homo sapiens).
In the case of `CCNCCCCNCCCCNCCCCNCCCCNCCO` [SL-11141], the EC50 is 70 nM in experiment [8] (Homo sapiens, 144 h); 130 nM in experiment [2] (Homo sapiens, DU-145, 144 h); 710 nM in experiment [5] (Homo sapiens, 144 h); more than 31200 nM in experiment [7] (Homo sapiens, PC-3, 144 h).
`CCNCCCCNCCCCNCCCCNCCCCNC/C=C\CNCCCCNCCCCNCCCCNCCCCNCC` [SL-11150]: the EC50 in experiment [8] (Homo sapiens, 144 h) is 230 nM; in experiment [2] (Homo sapiens, DU-145, 144 h) it was 110 nM; in experiment [5] (Homo sapiens, 144 h), 480 nM.
